PubChem BioAssay (NCI)
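Five concentrations, 48 hours, 96-well plates. At the GI50, growth is halved. The concentration for full growth arrest is given as TGI.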

How the values were obtained:
Assay in all cases: growth of human tumour cells (NCI), 48 h
[1] = system: 786-0 renal
[2] = system: A498 renal
[3] = system: A549 NSCLC
[4] = system: ACHN renal
[5] = system: BT-549 breast
[6] = system: CAKI-1 renal
[7] = system: CCRF-CEM leukemia
[8] = system: COLO 205 colon
[9] = system: DU-145 prostate
[10] = system: EKVX NSCLC
[11] = system: HCC-2998 colon
[12] = system: HCT-116 colon
[13] = system: HCT-15 colon
[14] = system: HL-60(TB) leukemia
[15] = system: HOP-62 NSCLC
[16] = system: HOP-92 NSCLC
[17] = system: HS 578T breast
[18] = system: HT29 colon
[19] = system: IGROV1 ovarian
[20] = system: K-562 leukemia
[21] = system: KM12 colon
[22] = system: LOX IMVI melanoma
[23] = system: M14 melanoma
[24] = system: MALME-3M melanoma
[25] = system: MCF7 breast
[26] = system: MDA-MB-231 breast
[27] = system: MDA-MB-435
[28] = system: MDA-MB-468 breast
[29] = system: MOLT-4 leukemia
[30] = system: NCI-H226 lung

SMILES: COP(=O)(CC(F)(F)C(F)(F)F)OC
- GI50 [1]: 6.27 µM
- TGI [1]: 20.4 µM
- GI50 [2]: 22.1 µM
- TGI [2]: 41.1 µM
- GI50 [3]: 22.1 µM
- TGI [3]: 53.1 µM
- GI50 [4]: 2.12 µM
- TGI [4]: 4.52 µM
- GI50 [5]: 6.26 µM
- TGI [5]: 20.4 µM
- GI50 [6]: 2.6 µM
- TGI [6]: 6.49 µM
- GI50 [7]: 2.43 µM
- TGI [7]: 8.68 µM
- GI50 [8]: 1.99 µM
- TGI [8]: 3.62 µM
- GI50 [9]: 10.5 µM
- TGI [9]: 24.5 µM
- GI50 [10]: 2.71 µM
- TGI [10]: 8.33 µM
- GI50 [11]: 13.6 µM
- TGI [11]: 27 µM
- GI50 [12]: 2.21 µM
- TGI [12]: 5.99 µM
- GI50 [13]: 1.76 µM
- TGI [13]: 4.93 µM
- GI50 [14]: 2.15 µM
- TGI [14]: 5.33 µM
- GI50 [15]: 22.7 µM
- TGI [15]: 52.7 µM
- GI50 [16]: 3.89 µM
- TGI [16]: 13.1 µM
- GI50 [17]: 15.1 µM
- TGI [17]: 79.4 µM
- GI50 [18]: 2.46 µM
- TGI [18]: 5.17 µM
- GI50 [19]: 19.9 µM
- TGI [19]: 42.5 µM
- GI50 [20]: 2.93 µM
- TGI [20]: 14.3 µM
- GI50 [21]: 19.4 µM
- TGI [21]: 40.1 µM
- GI50 [22]: 1.7 µM
- TGI [22]: 3.54 µM
- GI50 [23]: 1.8 µM
- TGI [23]: 3.77 µM
- GI50 [24]: 2.32 µM
- TGI [24]: 5.62 µM
- GI50 [25]: 2.05 µM
- TGI [25]: 10.5 µM
- GI50 [26]: 8.95 µM
- TGI [26]: 22.9 µM
- GI50 [27]: 6.7 µM
- TGI [27]: 22.4 µM
- GI50 [28]: 1.35 µM
- TGI [28]: 3.16 µM
- GI50 [29]: 3.06 µM
- TGI [29]: 10.8 µM
- GI50 [30]: 23.2 µM
